Laboratory results taken from patent publication US8691977B2, “Certain chemical entities, compositions, and methods” (Neupharma, Inc., priority 2010, dated 2014).

System: nitric oxide production
Assay: not given
Conditions: Jin et al., J Nat Prod 65: 89 (2002); read-out: IC50, inhibition of nitric oxide production; cited from earlier work

Row | Compound | IC50 [µM]
1 | N=C(N)NN [aminoguanidine] | 16

System: A549 cells
Assay: Inhibition of cell growth in tumor cells (MTT assay)
Assay type: cell-based
Conditions: Homo sapiens, 72 h compound exposure
Method: Inhibition of cell growth by compounds was measured using MTT assay (Mosmann, T., Journal of Immunological Methods, 1983, 65, 55-63). Tumor cell lines were purchased from ATCC (American Type Culture Collection, Manassas, Va.). All cell lines were maintained in RPMI 1640 (Hyclone) supplemented with 10% fetal bovine serum (FBS, Hyclone), glutamine (2 mM, Hyclone), and antibiotics (penicillin 100 U/mL and streptomycin 50 μg/mL) at 37° C. in a humidified atmosphere of 5% CO2 in air. Taxol (positive control, Sigma) and compounds were dissolved in DMSO (Sigma), and the final concentration of DMSO in the medium was 1%. Tumor cells were plated in 96-well plates at densities from 4000 cells/well of a 96-well plate and allowed to adhere/grow for 24 h. They were then treated with various concentrations of drug for 72 h. 3-(4,5-Dimethylthiazol-2-yl)-2,5-diphenyltetrazolium bromide (MTT, Sigma) was used to determine the number of viable cells at the time of compound addition and the number of cells remaining after 72 h compound exposure. The number of cells remaining after 72 h was compared to the number of viable cells at the time of compound addition by measuring the absorbance at 570 nm, allowing for the calculation of growth inhibition.
All concentrations of compounds were tested in triplicate and controls were averaged over 4 wells. IC50 was calculated by plotting the concentration of compound vs the percentage of inhibition in treated wells using GraphPad Prism 5.

Row | IC50 [nM] | Compound
2 | 737 | CC1=C(O)C(=O)C=C2C1=CC=C1[C@@]2(C)CC[C@@]2(C)[C@@H]3C[C@](C)(CNC(N)=O)CC[C@]3(C)CC[C@]12C [1-(((2R,4aS,6aS,12bR,14aS,14bR)-10-hydroxy-2,4-a,6a,9,12b,14a-hexamethyl-11-oxo-1,2,3,4,4a, 5,6,6a,11,12b,13,14,14a,14b-tetradecahydropicen-2-yl)methyl)urea]
3 | 159 | CC1=C(O)C(=O)C=C2C1=CC=C1[C@@]2(C)CC[C@@]2(C)[C@@H]3C[C@](C)(CNC(=O)CN(C)C)CC[C@]3(C)CC[C@]12C [2-(dimethylamino)-N-(((2R,4aS,6aS,12bR,14aS,14bR)-10-hydroxy-2,4a,6a,9,12b,14a-hexamethyl-11-oxo-1,2,3,4,4a,5,6,6a,11,12b,13,14,14a,14b-tetradecahydropicen-2-yl)methyl)acetamide]
4 | 523 | CC1=C(O)C(=O)C=C2C1=CC=C1[C@@]2(C)CC[C@@]2(C)[C@@H]3C[C@](C)(CN4CCOCC4)CC[C@]3(C)CC[C@]12C [(6bS,8aS,11R,12aR,12bS,14aR)-3-hydroxy-4,6b,8a,11,12b,14a-hexamethyl-11-(morpholinomethyl)-7,8,8a,9,10,11,12,12a,12b,13,14,14a-dodecahydropicen-2(6bH)-one]
5 | 498 | CC1=C(O)C(=O)C=C2C1=CC=C1[C@@]2(C)CC[C@@]2(C)[C@@H]3C[C@](C)(CN4CCCC4)CC[C@]3(C)CC[C@]12C [(6bS,8aS,11R,12aR,12bS,14aR)-3-hydroxy-4,6b,8a,11,12b,14a-hexamethyl-11-(pyrrolidin-1-ylmethyl)-7,8,8a,9,10,11,12,12a,12b,13,14,14a-dodecahydropicen-2(6bH)-one]
6 | 285 | CC1=C(O)C(=O)C=C2C1=CC=C1[C@@]2(C)CC[C@@]2(C)[C@@H]3C[C@](C)(CN(C)C)CC[C@]3(C)CC[C@]12C [(6bS,8aS,11R,12aR,12bS,14aR)-11-((dimethylamino)methyl)-3-hydroxy-4,6b,8a,11,12b,14a-hexamethyl-7,8,8a,9,10,11,12,12a,12b,13,14,14a-dodecahydropicen-2(6bH)-one]
7 | 246 | CC1=C(O)C(=O)C=C2C1=CC=C1[C@@]2(C)CC[C@@]2(C)[C@@H]3C[C@](C)(CNC(=O)N4CCN(C)CC4)CC[C@]3(C)CC[C@]12C [N-(((2R,4aS,6aS,12bR,14aS,14bR)-10-hydroxy-2,4-a,6a,9,12b,14a-hexamethyl-11-oxo-1,2,3,4,4a,5,6,6a,11,12b,13,14,14a,14b-tetradecahydropicen-2-yl)methyl)-4-methylpiperazine-1-carboxamide]
8 | 358 | CC1=C(O)C(=O)C=C2C1=CC=C1[C@@]2(C)CC[C@@]2(C)[C@@H]3C[C@](C)(CNC(=O)N4CCOCC4)CC[C@]3(C)CC[C@]12C [N-(((2R,4aS,6aS,12bR,14aS,14bR)-10-hydroxy-2,4-a,6a,9,12b,14a-hexamethyl-11-oxo-1,2,3,4,4a,5,6,6a,11,12b,13,14,14a,14b-tetradecahydropicen-2-yl)methyl)morpholine-4-carboxamide]

Row | Compound | IC50 [nM]
9 | CC1=C(O)C(=O)C=C2C1=CC=C1[C@@]2(C)CC[C@@]2(C)[C@@H]3C[C@](C)(CO)CC[C@]3(C)CC[C@]12C [(6bS,8aS,11R,12aR,12bS,14aR)-3-hydroxy-11-(hydroxymethyl)-4,6b,8a,11,12b,14a-hexamethyl-7,8,8a,9,10,11,12,12a,12b,13,14,14a-dodecahydropicen-2(6bH)-one] | 624
10 | CC1=C(O)C(=O)C=C2C1=CC=C1[C@@]2(C)CC[C@@]2(C)[C@@H]3C[C@](C)(CN)CC[C@]3(C)CC[C@]12C [(6bS,8aS,11R,12aR,12bS,14aR)-11-(aminomethyl)-3-hydroxy-4,6b,8a,11,12b,14a-hexamethyl-7,8,8a,9,10,11,12,12a,12b,13,14,14a-dodecahydropicen-2(6bH)-one] | 841
11 | COC(=O)OC[C@]1(C)CC[C@]2(C)CC[C@]3(C)C4=CC=C5C(=CC(=O)C(O)=C5C)[C@]4(C)CC[C@@]3(C)[C@@H]2C1 [((2R,4aS,6aS,12bR,14aS,14bR)-10-hydroxy-2,4-a,6a,9,12b,14a-hexamethyl-11-oxo-1,2,3,4,4a,5,6,6a,11,12b,13,14,14a,14b-tetradecahydropicen-2-yl)methyl methyl carbonate] | 393
